Test results taken from patent US20060257543A1, “Molecules comprising linked organic moieties as flavor modifiers for comestible compositions” (priority 2005, published 2006).
Like-named read-outs stand apart in the source and are kept apart here.

Key:
[1] = target: T1, hT1R1/hT1R3 umami receptor expressed in an HEK293 cell line (Homo sapiens, UniProt Q7RTX0+Q7RTX1); experiment: Umami taste enhancement activity assay (EC50 ratio vs. MSG); type: cell-based
T1 construct: expressed in transfected cells; host or cells: HEK293 derivative, clone I-17, expression induced with mifepristone
T1 sequence (Q7RTX1 21-841): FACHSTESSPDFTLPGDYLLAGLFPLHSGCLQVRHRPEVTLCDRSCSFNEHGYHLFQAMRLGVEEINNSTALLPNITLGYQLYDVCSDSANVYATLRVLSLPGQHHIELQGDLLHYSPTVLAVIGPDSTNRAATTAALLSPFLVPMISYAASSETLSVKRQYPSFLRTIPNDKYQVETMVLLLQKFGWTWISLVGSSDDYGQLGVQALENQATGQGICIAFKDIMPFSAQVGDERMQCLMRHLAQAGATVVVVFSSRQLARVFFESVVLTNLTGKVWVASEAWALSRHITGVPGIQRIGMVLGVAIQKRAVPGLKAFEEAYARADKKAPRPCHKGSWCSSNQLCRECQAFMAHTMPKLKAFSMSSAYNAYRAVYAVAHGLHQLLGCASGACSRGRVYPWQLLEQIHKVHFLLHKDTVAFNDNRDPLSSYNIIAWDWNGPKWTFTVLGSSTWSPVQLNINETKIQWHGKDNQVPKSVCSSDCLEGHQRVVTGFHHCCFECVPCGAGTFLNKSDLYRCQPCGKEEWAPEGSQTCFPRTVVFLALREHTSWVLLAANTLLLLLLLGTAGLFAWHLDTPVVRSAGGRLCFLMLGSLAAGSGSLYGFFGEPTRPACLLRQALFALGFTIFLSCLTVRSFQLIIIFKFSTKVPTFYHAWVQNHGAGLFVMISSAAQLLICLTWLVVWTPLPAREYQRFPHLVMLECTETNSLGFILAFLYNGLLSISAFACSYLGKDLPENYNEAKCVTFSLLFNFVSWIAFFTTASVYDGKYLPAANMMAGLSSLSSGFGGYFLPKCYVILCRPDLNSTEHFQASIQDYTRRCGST
T1 sequence (Q7RTX0 21-852): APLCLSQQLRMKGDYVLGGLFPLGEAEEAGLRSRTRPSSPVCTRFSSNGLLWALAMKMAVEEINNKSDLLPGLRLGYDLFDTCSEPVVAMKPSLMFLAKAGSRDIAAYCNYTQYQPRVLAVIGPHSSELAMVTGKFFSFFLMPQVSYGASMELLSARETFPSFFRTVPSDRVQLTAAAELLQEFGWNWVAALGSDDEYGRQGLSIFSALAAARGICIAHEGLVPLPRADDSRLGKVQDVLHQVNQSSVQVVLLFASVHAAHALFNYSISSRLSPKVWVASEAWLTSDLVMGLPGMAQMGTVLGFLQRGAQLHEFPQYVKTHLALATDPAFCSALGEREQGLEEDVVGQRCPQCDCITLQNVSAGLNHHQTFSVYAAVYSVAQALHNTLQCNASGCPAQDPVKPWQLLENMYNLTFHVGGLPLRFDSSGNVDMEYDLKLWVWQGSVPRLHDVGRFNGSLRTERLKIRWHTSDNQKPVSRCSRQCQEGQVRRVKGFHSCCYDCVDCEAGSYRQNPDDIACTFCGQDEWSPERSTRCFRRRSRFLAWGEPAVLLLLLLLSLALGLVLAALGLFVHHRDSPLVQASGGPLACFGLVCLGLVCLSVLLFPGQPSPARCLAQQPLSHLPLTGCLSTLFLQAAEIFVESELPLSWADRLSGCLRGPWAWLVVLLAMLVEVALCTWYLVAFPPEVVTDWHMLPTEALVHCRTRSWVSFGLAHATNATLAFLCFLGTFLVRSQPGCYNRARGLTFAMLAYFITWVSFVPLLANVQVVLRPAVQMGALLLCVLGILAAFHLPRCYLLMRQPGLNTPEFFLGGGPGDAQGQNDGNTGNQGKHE
Text: In umami taste enhancement activity assay experiments, which produce an “EC50 ratio” measurement of how effectively the tastant compounds of the invention enhance the savory flavorant (typically MSG) already in a test solution. A series of measurements of the dose response is run in solutions comprising MSG alone, then a second dose response is run with MSG in combination with predetermined amounts of a candidate compound of Formula (I) at the same time.
In this assay, increasing concentrations of monosodium glutamate (ranging from 12 μM to 81 mM) were presented, in duplicates, in the presence or absence of a fixed concentration of the test compound. Typical compound concentrations tested were 30 μM, 10 μM, 3 μM, 1 μM, 0.3 μM, 0.1 μM and 0.03 μM. The relative efficacy of compounds of Formula (I) at enhancing the receptor was determined by calculating the magnitude of a shift in the EC50 for monosodium glutamate. Enhancement was defined as a ratio (EC50R) corresponding to the EC50 of monosodium glutamate, determined in the absence of the test compound, divided by the EC50 of monosodium glutamate, determined in the presence of the test compound.
Stated alternatively, “EC50 ratio” as compared to MSG is calculated based on the following definitions:
EC50 Ratio vs. MSG=EC50 (MSG)/EC50 (MSG+[Compound]) • wherein “[compound]” refers to the concentration of the compound of Formula (I) used to elicit (or enhance or potentiate) the MSG dose response.
It should be noted that the EC50 ratio measured can depend somewhat on the concentration of the compound itself. Preferred savory enhancers would have a high EC50 Ratio vs. MSG at a low concentration of the compound used. Preferably the EC50 ratio experiments to measure umami enhancement are run at a concentration of a compound of Formula (I) between about 10 μM to about 0.1 μM, or preferably at […] or 3.0 μM.

[2] = target: T1, hT1R1/hT1R3 umami receptor expressed in an HEK293 cell line; experiment: In vitro hT1R1/hT1R3 umami taste receptor activation assay (FLIPR, dose response); type: cell-based
Text: In order to identify new savory flavoring agents and enhancers, including compounds with savory agonist and enhancer activities (dual activity), the tastant compounds of Formula (I) were screened in primary assays and secondary assays including compound dose response and enhancement assay. In a primary assay for potential ability to modulate umami taste, tastant compounds of Formula (I) that can be either savory flavoring agents in their own right or flavor enhancers of MSG are identified and scores of their activities are given as percentage of the maximum MSG intensity (%). In compound dose response, an EC50 is calculated to reflect the potency of the compound as a savory agonist or enhancer.
An HEK293 cell line derivative (see e.g., Chandrashekar, et al., Cell (2000) 100: 703-711) which stably expresses Gα15 and hT1R1/hT1R3 under an inducible promoter (see WO 03/001876 A2) was used to identify compounds with savory tasting properties.
Compounds disclosed in this application were initially selected based on their activity on the hT1R1/hT1R3-HEK293-Gα15 cell line. Activity was determined using an automated fluorometric imaging assay on a FLIPR instrument (Fluorometric Intensity Plate Reader, Molecular Devices, Sunnyvale, Calif.) (designated FLIPR assay). Cells from one clone (designated clone I-17) were seeded into 384-well plates (at approximately 48,000 cells per well) in a medium containing Dulbecco's modified Eagle's medium (DMEM) supplemented with GlutaMAX (Invitrogen, Carlsbad, Calif.), 10% dialyzed fetal bovine serum (Invitrogen, Carlsbad, Calif.), 100 Units/ml Penicillin G, 100 μg/ml Streptomycin (Invitrogen, Carlsbad, Calif.) and 60 pM mifepristone (to induce expression of hT1R1/hT1R3, (see WO 03/001876 A2). I-17 cells were grown for 48 hours at 37° C. I-17 cells were then loaded with the calcium dye Fluo-3AM (Molecular Probes, Eugene, Oreg.), 4 μM in a phosphate buffered saline (D-PBS) (Invitrogen, Carlsbad, Calif.), for 1.5 hours at room temperature. After replacement with 25 μl D-PBS, stimulation was performed in the FLIPR instrument and at room temperature by the addition of 25 μl D-PBS supplemented with different stimuli at concentrations corresponding to twice the desired final level. Receptor activity was quantified by determining the maximal fluorescence increases (using a 480 nm excitation and 535 nm emission) after normalization to basal fluorescence intensity measured before stimulation.
For dose-responses analysis, stimuli were presented in duplicates at 10 different concentrations ranging from 1.5 nM to 30 μM. Activities were normalized to the response obtained with 60 mM monosodium glutamate, a concentration that elicits maximum receptor response. EC50s (concentration of compound that causes 50% activation of receptor) were determined using a non-linear regression algorithm, where the Hill slope, bottom asymptotes and top asymptotes were allow to vary. Identical results were obtained when analyzing the dose-response data using commercially available software for non-linear regression analysis such as GraphPad PRISM (San Diego, Calif.).

Structure (SMILES) | EC50 ratio (vs. MSG) ([1]; compound @ 3 μM) | EC50 ([2]; read-out: Umami EC50) | EC50 ratio (vs. MSG) ([1]; compound @ 1 μM) | EC50 ratio (enhanced the effectiveness of monosodium glutamate) ([1]; compound present at 0.03 μM) | EC50 ([2]; read-out: EC50 for activation of a hT1R1/hT1R3 umami receptor expressed in an HEK293 cell line)
c1ccc2sc(SCc3cn4ccsc4n3)nc2c1 [Example A13] | 3.6 | 5.19 µM | – | – | –
COc1ccc(CNc2ccccn2)cc1 [Example A8] | – | 11.8 µM | 3.1 | – | –
S=C(NCCc1ccccn1)Nc1cccc(Cl)c1 [Example A17] | – | 4.53 µM | 4.7 | – | –
O=C(SCc1ccccn1)c1ccccc1 [Example A11] | 6.5 | 6.34 µM | – | – | –
O=C(OCCCc1nc2ccccc2[nH]1)c1cccs1 [Example A6] | 4.4 | 3.5 µM | – | – | –
O=C(OCCCn1ncc2ccccc2c1=O)c1cccs1 [Example A7] | 3.8 | 6 µM | – | – | –
c1ccc2oc(SCc3cn4ccccc4n3)nc2c1 [Example A12] | – | 5.14 µM | 2.81 | – | –
CCCC(CCC)NC(=S)c1ccc2c(c1)OCO2 [Example 1, N-(heptan-4-yl)benzo[d][1,3]dioxole-5-carbothioamide] | – | – | – | 3 | 8.8 µM
CC(C)c1ccc(NC(=S)NCCc2ccccn2)cc1 [Example A2] | – | 1.43 µM | – | – | –
COc1ccc(CNc2nc3ccccn3n2)cc1 [Example A9] | 3.6 | 11.8 µM | – | – | –
CSc1ccc(NC(=S)NCCc2ccccn2)cc1 [Example A5] | – | 3.26 µM | – | – | –
